Results published in PubChem BioAssay (NCI).
Where “and” joins values, the source holds several entries; their conditions need not be identical. Identical values can stand only once.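 1) Cells in 96-well plates. 2) Compound, 48 h, 5 concentrations. 3) Linear interpolation between surrounding doses. 4) Unreached endpoint = highest concentration. Abbreviation: GI50, concentration required for 50% inhibition of growth. TGI: concentration producing complete growth inhibition.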

Columns and labels:
Test in all cases: inhibition of tumour cell growth, NCI panel, 48 h
[1] = test system: CCRF-CEM leukemia
[2] = test system: COLO 205 colon
[3] = test system: 786-0 renal
[4] = test system: NCI-H522 lung
[5] = test system: OVCAR-8 ovarian
[6] = test system: PC-3 prostate
[7] = test system: NCI-H226 lung
[8] = test system: SK-MEL-2 melanoma
[9] = test system: RPMI-8226 leukemia
[10] = test system: K-562 leukemia

| Compound | TGI [1] | TGI [2] | TGI [3] | TGI [4] | TGI [5] | TGI [6] | TGI [7] [µM] | TGI [8] [µM] | TGI [9] | TGI [10] [µM] | GI50 [9] | GI50 [1] | GI50 [2] | GI50 [10] [µM] | GI50 [3] | GI50 [5] | GI50 [6] | GI50 [7] [µM] | GI50 [8] [µM] | GI50 [4] |
| --- | --- | --- | --- | --- | --- | --- | --- | --- | --- | --- | --- | --- | --- | --- | --- | --- | --- | --- | --- | --- |
| Cc1cc(O)c(/C=N/C(=S)NCc2ccccc2)c(=O)o1 | > 100 µM | > 100 µM | > 100 µM | > 100 µM | > 100 µM | > 100 µM | > 100 | > 100 |  |  |  |  |  |  |  |  |  |  |  |  |
| CN(C)c1nc(=Nc2ccc(N=c3nc(N(C)C)ss3)cc2)ss1 | 27.7 µM | 70.6 µM | > 100 µM | 25.8 µM | 34.2 µM |  | > 100 | > 100 | 40.7 µM | 30.5 |  |  |  |  |  |  |  |  |  |  |
| CCOC(=O)NC(=O)c1cn(CCCO)c(=O)[nH]c1=O | > 100 µM | > 100 µM | > 100 µM |  | > 100 µM |  | > 100 | > 100 | > 100 µM | > 100 |  |  |  |  |  |  |  |  |  |  |
| CSc1nc(NC2OCC(OC(C)=O)C(OC(C)=O)C2OC(C)=O)c(N=CC=Nc2c(NC3OCC(OC(C)=O)C(OC(C)=O)C3OC(C)=O)nc(SC)[nH]c2=O)c(=O)[nH]1 (stereo unspecified) | > 100 µM | > 100 µM | > 100 µM | > 83.8 µM | > 100 µM |  | > 88.8 | > 100 | > 100 µM | > 100 |  |  |  |  |  |  |  |  |  |  |
| O=C(CSc1ccc(Cl)cc1)Nc1ccc(-c2nc3ccccc3s2)c(Cl)c1 | > 100 µM | 9.24 µM | 24.7 µM |  | > 100 µM | 8.23 µM | 64.1 | 15.7 | > 100 µM | > 100 | 2.66 µM | 3.58 µM | 2.88 µM | 4.14 | 3.94 µM | 5.09 µM | 2.42 µM | 4.9 | 3.82 |  |
| CC(=O)[C@@]12O[C@@H]1CC1C3CCC4=CC(O)CCC4(C)C3CCC12C (stereo partly specified) |  | > 100 µM | > 100 µM | > 100 µM | 82.3 µM | > 100 µM | > 100 | > 100 | 97.1 µM | > 100 | 21.6 µM |  | 57.4 µM | 55.5 | > 100 µM | 23.3 µM | 40.3 µM | 75.9 | > 100 | > 100 µM |
| C/C(=N\NC(=S)NC(CCC(=O)O)C(=O)O)c1ccccn1 (stereo unspecified) | > 100 µM | > 100 µM | > 100 µM | > 100 µM | > 100 µM |  | > 100 | > 100 | > 100 µM | > 100 |  |  |  |  |  |  |  |  |  |  |
| c1ccc(COc2cccc3ccc[n+](Cc4ccccc4)c23)cc1 | > 100 µM | 23.9 µM | 84.6 µM | 8.02 µM |  |  | 25.5 | 20.3 | 14.2 µM | > 100 |  |  |  |  |  |  |  |  |  |  |
| CCN1c2ccccc2C(C(SC)S(=O)(=O)c2ccc(C)cc2)c2c1[nH]c(=O)n(C)c2=O (stereo unspecified) | > 100 µM | > 100 µM | > 100 µM | > 100 µM | > 100 µM |  | > 100 | > 100 | > 100 µM | > 100 |  |  |  |  |  |  |  |  |  |  |
| CN(C)CCSC1=Nc2ccc(Cl)cc2C(c2ccccc2Cl)=NC1 | 82.1 µM and > 100 µM | 27.3 µM and > 100 µM | 31.5 µM and > 100 µM | 21.6 µM and > 100 µM | 20.2 µM and > 100 µM | 33.4 µM and > 100 µM |  | > 100 | 40.6 µM and > 100 µM | > 100 | 16.2 µM and 49.4 µM | 21.5 µM and 46.2 µM | 14 µM and 74.2 µM |  | 14.3 µM and > 100 µM | 6.63 µM and 43.5 µM | 15.4 µM and 57.7 µM |  |  | 6.68 µM and 52.2 µM |
| Cn1cnc([N+](=O)[O-])c1Sc1nc2ccccc2[nH]1 | 90.1 µM | 23.1 µM | > 100 µM |  | 30.4 µM |  | 78.1 |  | 56.4 µM | > 100 |  |  |  |  |  |  |  |  |  |  |
| COc1ncnc(NS(=O)(=O)c2ccc(N=C3C(=O)N(CN4CCN(c5c(F)cc6c(=O)c(C(=O)O)cn(C7CC7)c6c5OC)CC4C)c4ccc(Cl)cc43)cc2)c1OC (stereo unspecified) |  | > 50 µM | > 50 µM | > 50 µM | > 50 µM | > 50 µM | > 50 | > 50 | 28.1 µM | > 50 | 8.33 µM |  | 19.6 µM | 20.5 | 21.4 µM | 14 µM | 9.39 µM | 27.1 | 35.2 | > 50 µM |
| [Cl-].[La+3].[O-]/N=C(\c1ccccc1)c1ccccn1.[O-]/N=C(\c1ccccc1)c1ccccn1.[O-]/N=C(\c1ccccc1)c1ccccn1 | > 100 µM | > 100 µM | > 100 µM | > 100 µM | > 100 µM |  | 51.2 | > 100 | > 100 µM | > 100 | 62.1 µM | 25.7 µM | 46.8 µM | 84.2 | 36 µM | 46 µM |  | 21.6 | 37.1 | 44.5 µM |
| COc1ccc(-c2nnc(COc3ccc(C(=O)/C=C/c4ccco4)cc3)o2)cc1 |  | 4.32 µM | 3.65 µM | 5.62 µM | 10.1 µM | 11.8 µM | 16.8 | 27.7 | 5.94 µM | 7.45 | 2.13 µM |  | 2.23 µM | 2.77 | 1.89 µM | 3.04 µM | 3.33 µM | 4 | 13.9 | 2.59 µM |
| CN(C)c1ccc(/C=C(\NC(=O)c2ccccc2)c2nc3ncncc3[nH]2)cc1 | > 100 µM | > 100 µM | > 100 µM | > 100 µM | > 100 µM |  |  | > 100 |  | > 100 |  |  |  |  |  |  |  |  |  |  |
| CC1=CC(O)(c2ccc(-c3ccccc3Cl)cc2)OC1=O (stereo unspecified) | > 100 µM | > 100 µM | > 100 µM | > 100 µM | > 100 µM |  |  | > 100 | > 100 µM | > 100 |  |  |  |  |  |  |  |  |  |  |
| CCOC(=O)C(=C=C=C(c1ccccc1)c1ccccc1)C(=O)OCC | 15.1 µM | 32.5 µM | 32 µM |  | 50.3 µM |  | 37.6 | 36.9 | 44.9 µM | 28.5 |  |  |  |  |  |  |  |  |  |  |
